What all share (assay type): biochemical
One experiment concerns the target SRC (Homo sapiens, UniProt P12931). Description: Inhibition of a panel of kinases, in vitro HotSpot kinase assay: SRC. Particulars: D-compounds panel data; 1 μM ATP. As to the method: (§1) The degree of inhibition of a panel of kinases is determined using the in vitro HotSpot kinase assay (purified enzymes, ^33P-ATP, an appropriate substrate and 1 μM ATP).
The next experiment has as its target LCK (Homo sapiens, UniProt P06239). Put plainly: Inhibition of a panel of kinases, in vitro HotSpot kinase assay: LCK. Particulars: D-compounds panel data; 1 μM ATP; read-out: IC50 LCK.
Another experiment deals with T1, ITK (Homo sapiens, UniProt Q08881).
T1 sequence (Q08881 1-620): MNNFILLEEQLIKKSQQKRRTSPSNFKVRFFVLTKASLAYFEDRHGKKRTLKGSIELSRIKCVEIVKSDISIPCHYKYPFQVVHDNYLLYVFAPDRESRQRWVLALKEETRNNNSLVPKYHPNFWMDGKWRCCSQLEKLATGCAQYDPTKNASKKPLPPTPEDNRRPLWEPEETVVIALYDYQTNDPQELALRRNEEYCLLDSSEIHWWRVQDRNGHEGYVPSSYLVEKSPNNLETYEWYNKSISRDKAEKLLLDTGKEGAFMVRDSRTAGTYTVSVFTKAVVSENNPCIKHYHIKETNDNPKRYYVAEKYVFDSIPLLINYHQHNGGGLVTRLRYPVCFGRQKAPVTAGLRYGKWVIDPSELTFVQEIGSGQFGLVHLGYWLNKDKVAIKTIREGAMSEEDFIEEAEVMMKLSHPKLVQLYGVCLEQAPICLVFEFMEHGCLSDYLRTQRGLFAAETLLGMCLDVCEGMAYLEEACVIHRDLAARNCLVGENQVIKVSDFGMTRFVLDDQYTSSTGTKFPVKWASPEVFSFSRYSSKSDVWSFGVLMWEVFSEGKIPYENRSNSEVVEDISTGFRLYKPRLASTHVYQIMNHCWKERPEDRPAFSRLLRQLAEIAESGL
Description: Inhibition of a panel of kinases, in vitro HotSpot kinase assay: ITK. The conditions noted are these: D-compounds panel data; 1 μM ATP. As for the experimental part: as §1

The target in the next experiment is EGFR (Homo sapiens, UniProt P00533). Put plainly: Inhibition of a panel of kinases, in vitro HotSpot kinase assay: EGFR. The conditions noted are these: D-compounds panel data; 1 μM ATP. As for the experimental part:
as §1

The next experiment addresses T2, JAK3 (Homo sapiens, UniProt P52333).
T2 sequence (P52333 1-1124): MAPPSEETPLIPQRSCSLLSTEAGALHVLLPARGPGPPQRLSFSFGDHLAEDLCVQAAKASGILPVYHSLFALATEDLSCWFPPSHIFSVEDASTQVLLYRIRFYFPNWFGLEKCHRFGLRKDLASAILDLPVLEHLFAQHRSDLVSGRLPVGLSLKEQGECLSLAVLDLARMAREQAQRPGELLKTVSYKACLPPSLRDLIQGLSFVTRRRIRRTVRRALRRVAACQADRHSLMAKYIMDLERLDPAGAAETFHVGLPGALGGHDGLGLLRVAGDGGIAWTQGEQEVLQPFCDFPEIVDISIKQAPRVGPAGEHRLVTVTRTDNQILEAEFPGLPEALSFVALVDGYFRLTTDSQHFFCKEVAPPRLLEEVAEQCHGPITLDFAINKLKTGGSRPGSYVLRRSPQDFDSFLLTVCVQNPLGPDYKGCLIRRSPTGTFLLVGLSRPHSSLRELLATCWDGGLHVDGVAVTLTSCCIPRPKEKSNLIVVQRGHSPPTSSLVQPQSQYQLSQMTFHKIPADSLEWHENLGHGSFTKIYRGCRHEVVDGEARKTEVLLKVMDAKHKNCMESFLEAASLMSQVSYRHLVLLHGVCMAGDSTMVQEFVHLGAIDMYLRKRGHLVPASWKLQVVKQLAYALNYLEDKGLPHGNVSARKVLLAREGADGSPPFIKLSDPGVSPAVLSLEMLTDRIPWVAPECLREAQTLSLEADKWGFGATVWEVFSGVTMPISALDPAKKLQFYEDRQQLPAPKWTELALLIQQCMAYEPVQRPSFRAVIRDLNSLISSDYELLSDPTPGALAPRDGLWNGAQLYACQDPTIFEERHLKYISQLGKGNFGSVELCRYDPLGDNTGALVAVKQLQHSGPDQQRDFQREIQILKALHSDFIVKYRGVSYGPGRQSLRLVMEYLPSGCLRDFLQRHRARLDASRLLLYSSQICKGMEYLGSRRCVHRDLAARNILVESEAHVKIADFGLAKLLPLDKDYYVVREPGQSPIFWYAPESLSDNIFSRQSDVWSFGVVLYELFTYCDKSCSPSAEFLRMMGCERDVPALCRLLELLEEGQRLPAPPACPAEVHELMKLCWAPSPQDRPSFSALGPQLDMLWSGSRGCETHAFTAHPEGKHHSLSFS
Put plainly: Inhibition of a panel of kinases, in vitro HotSpot kinase assay: JAK3. The conditions noted are these: D-compounds panel data; 1 μM ATP; read-out: IC50 JAK3.

Results on 13 compounds are retold here after patent US20210070748A1, “INHIBITORS OF BRUTONS TYROSINE KINASE” (Pharmacyclics LLC, priority 2015, published 2021).

SMILES strings stand for the structures. Where only a bound is given, the exact number is not on record here.

What is called IC50 is the concentration at which inhibition is half-maximal.

Chain of SRC (P12931 whole entry): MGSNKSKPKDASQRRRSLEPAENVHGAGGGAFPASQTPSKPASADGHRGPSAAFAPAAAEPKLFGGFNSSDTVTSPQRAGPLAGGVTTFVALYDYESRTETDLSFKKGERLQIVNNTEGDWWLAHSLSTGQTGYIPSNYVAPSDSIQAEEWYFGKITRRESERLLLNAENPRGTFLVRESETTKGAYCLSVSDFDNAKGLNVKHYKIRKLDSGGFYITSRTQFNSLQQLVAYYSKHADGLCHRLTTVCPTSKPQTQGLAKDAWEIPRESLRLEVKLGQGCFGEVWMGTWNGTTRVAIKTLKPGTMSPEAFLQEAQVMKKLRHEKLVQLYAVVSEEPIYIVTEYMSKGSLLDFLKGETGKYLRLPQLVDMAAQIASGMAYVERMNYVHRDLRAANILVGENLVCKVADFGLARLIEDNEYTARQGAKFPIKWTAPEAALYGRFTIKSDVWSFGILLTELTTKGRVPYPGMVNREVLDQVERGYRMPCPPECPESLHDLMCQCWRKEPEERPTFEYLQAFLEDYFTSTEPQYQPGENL
Chain of LCK (P06239 whole entry): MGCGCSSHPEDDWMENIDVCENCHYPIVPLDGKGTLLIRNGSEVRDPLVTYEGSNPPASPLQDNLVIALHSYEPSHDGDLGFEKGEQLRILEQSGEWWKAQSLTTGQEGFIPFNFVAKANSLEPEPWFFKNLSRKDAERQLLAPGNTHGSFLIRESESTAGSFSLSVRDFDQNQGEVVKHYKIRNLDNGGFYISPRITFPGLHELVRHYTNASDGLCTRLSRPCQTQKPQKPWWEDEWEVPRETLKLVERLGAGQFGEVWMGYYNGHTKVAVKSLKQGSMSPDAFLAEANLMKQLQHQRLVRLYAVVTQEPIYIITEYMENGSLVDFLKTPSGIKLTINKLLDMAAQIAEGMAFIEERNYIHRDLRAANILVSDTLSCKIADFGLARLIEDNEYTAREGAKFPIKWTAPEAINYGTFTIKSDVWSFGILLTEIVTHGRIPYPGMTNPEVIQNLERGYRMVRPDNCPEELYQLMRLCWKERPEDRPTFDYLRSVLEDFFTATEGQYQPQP
Chain of EGFR (P00533 25-1210): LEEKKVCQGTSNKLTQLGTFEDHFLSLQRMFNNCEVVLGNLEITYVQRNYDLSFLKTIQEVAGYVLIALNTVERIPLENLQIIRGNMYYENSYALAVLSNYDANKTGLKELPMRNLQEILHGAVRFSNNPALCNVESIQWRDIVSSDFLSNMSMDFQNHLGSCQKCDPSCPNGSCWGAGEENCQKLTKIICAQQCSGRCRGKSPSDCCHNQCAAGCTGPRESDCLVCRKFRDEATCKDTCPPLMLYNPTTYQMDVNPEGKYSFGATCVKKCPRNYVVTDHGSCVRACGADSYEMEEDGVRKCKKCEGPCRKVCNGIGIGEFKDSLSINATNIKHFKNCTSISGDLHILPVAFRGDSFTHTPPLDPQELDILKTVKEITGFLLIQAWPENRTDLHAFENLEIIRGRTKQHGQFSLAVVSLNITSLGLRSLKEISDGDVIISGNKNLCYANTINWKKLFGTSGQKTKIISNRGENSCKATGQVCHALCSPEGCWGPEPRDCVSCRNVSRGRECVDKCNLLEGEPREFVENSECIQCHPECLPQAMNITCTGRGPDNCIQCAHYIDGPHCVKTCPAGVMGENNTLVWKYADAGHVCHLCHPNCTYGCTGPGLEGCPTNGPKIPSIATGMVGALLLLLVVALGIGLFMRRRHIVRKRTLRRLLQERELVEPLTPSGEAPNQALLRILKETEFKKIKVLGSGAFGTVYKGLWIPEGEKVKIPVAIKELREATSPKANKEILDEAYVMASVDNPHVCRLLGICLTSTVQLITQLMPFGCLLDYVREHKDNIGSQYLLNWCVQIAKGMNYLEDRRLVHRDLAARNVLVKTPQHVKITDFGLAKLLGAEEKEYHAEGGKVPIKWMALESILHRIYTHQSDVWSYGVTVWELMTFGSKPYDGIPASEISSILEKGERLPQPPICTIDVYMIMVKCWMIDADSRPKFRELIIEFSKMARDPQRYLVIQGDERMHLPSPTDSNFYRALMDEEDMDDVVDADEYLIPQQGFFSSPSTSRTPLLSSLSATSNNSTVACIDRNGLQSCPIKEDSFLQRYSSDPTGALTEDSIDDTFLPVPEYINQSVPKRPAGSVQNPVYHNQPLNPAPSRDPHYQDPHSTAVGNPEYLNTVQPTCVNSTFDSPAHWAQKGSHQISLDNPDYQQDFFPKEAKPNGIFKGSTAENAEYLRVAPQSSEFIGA

Turning to `C[C@@H]1[C@H](NC(=O)c2ccc(C3CC3)cc2)CCCN1c1cnc(C(N)=O)c(Nc2cnn(C3CCOCC3)c2)n1` [Example D-274, 5-[(2R,3R)-3-(4-cyclopropylbenzamido)-2-methylpiperidin-1-yl]-3-{[1-(oxan-4-yl)-1H-pyrazol-4-yl]amino}pyrazine-2-carboxamide], the 50% inhibitory concentration (IC50) on SRC lay in the range of 10 to 100 nM; on LCK, 100 to 1000 nM; against ITK, 100 to 1000 nM; at EGFR, 1000 to 10000 nM; at JAK3, 1000 to 10000 nM.

Regarding `Cc1nc2cc(C(=O)N[C@@H]3CCCN(c4cnc(C(N)=O)c(Nc5cnn(C)c5)n4)[C@@H]3C)ccc2[nH]1` [Example D-261, N-[(2R,3R)-1-{5-carbamoyl-6-[(1-methyl-1H-pyrazol-4-yl)amino]pyrazin-2-yl}-2-methylpiperidin-3-yl]-2-methyl-1H-1,3-benzodiazole-5-carboxamide], the IC50 was in the range of 10 to 100 nM against SRC; 10 to 100 nM on LCK; 100 to 1000 nM on ITK; 100 to 1000 nM against EGFR; 1000 to 10000 nM on JAK3.

In the case of `C[C@@H]1[C@H](NC(=O)c2ccc(C(C)(C)C)cc2)CCCN1c1cnc(C(N)=O)c(Nc2ccc(OC3CCN(C)CC3)cc2)n1` [Example D-291, 5-[(2R,3R)-3-(4-tert-butylbenzamido)-2-methylpiperidin-1-yl]-3-({4-[(1-methylpiperidin-4-yl)oxy]phenyl}amino)pyrazine-2-carboxamide], the 50% inhibitory concentration (IC50) against SRC is 10 to 100 nM; at LCK, 10 to 100 nM; against ITK it was 10 to 100 nM; against EGFR it was 100 to 1000 nM; on JAK3, 1000 to 10000 nM.

Consider `C[C@@H]1[C@H](NC(=O)c2ccc(C(C)(C)F)cc2)CCCN1c1cnc(C(N)=O)c(Nc2cnn(C)c2)n1` [Example D-251, 5-[(2R,3R)-3-[4-(2-fluoropropan-2-yl)benzamido]-2-methylpiperidin-1-yl]-3-[(1-methyl-1H-pyrazol-4-yl)amino]pyrazine-2-carboxamide], for which the IC50 against SRC lay in the range of 10 to 100 nM; on LCK, 10 to 100 nM; against ITK, 100 to 1000 nM; against EGFR it was 1000 to 10000 nM; at JAK3, 1000 to 10000 nM.

As for `C[C@@H]1[C@H](NC(=O)c2cc3c(n2C)CC(C)(C)C3)CCCN1c1cnc(C(N)=O)c(Nc2cnn(C)c2)n1` [Example D-19, 3-[(1-methyl-1H-pyrazol-4-yl)amino]-5-[(2R,3R)-2-methyl-3-{1,5,5-trimethyl-1H,4H,5H,6H-cyclopenta[b]pyrrole-2-amido}piperidin-1-yl]pyrazine-2-carboxamide], the concentration for half-maximal inhibition (IC50) at SRC, at LCK, on ITK, at EGFR and at JAK3 was 100 to 1000 nM each time.

Consider `C[C@@H]1[C@H](NC(=O)c2ccc(C3CC3)cc2)CCCN1c1cnc(C(N)=O)c(Nc2cnn(C)c2C(F)(F)F)n1` [Example D-276, 5-[(2R,3R)-3-(4-cyclopropylbenzamido)-2-methylpiperidin-1-yl]-3-{[1-methyl-5-(trifluoromethyl)-1H-pyrazol-4-yl]amino}pyrazine-2-carboxamide], for which the IC50 on SRC, on LCK, at ITK, against EGFR and at JAK3 was over 10000 nM in each case.

With `C[C@@H]1[C@H](NC(=O)c2ccc(C(C)(C)O)cc2)CCCN1c1nnc(C(N)=O)c(Nc2cnn(C)c2)n1` [Example D-298, 3-[(2R,3R)-3-[4-(2-hydroxypropan-2-yl)benzamido]-2-methylpiperidin-1-yl]-5-[(1-methyl-1H-pyrazol-4-yl)amino]-1,2,4-triazine-6-carboxamide], the IC50 lay within 10 to 100 nM on SRC; 10 to 100 nM on LCK; 10 to 100 nM against ITK; 1000 to 10000 nM against EGFR; 100 to 1000 nM on JAK3.

With `C[C@@H]1[C@H](NC(=O)c2ccc(C3CC3)cc2)CCCN1c1cnc(C(N)=O)c(Nc2ccc3c(c2)CCOC3)n1` [Example D-303, 5-[(2R,3R)-3-(4-cyclopropylbenzamido)-2-methylpiperidin-1-yl]-3-[(3,4-dihydro-1H-2-benzopyran-6-yl)amino]pyrazine-2-carboxamide], the IC50 against SRC was 1000 to 10000 nM; at LCK, over 10000 nM; at ITK it was 1000 to 10000 nM; at EGFR, over 10000 nM; at JAK3, over 10000 nM.

For `Cc1nn(C)cc1Nc1nc(N2CCC[C@@H](NC(=O)c3ccc(C4CC4)cc3)[C@H]2C)cnc1C(N)=O` [Example D-272, 5-[(2R,3R)-3-(4-cyclopropylbenzamido)-2-methylpiperidin-1-yl]-3-[(1,3-dimethyl-1H-pyrazol-4-yl)amino]pyrazine-2-carboxamide], the IC50 is over 10000 nM at SRC; over 10000 nM at LCK; over 10000 nM against ITK; 1000 to 10000 nM against EGFR; over 10000 nM at JAK3.

On to `C[C@@H]1[C@H](NC(=O)c2cc(C3CC3)n[nH]2)CCCN1c1cnc(C(N)=O)c(Nc2cnn(C)c2)n1` [Example D-252, 5-[(2R,3R)-3-(3-cyclopropyl-1H-pyrazole-5-amido)-2-methylpiperidin-1-yl]-3-[(1-methyl-1H-pyrazol-4-yl)amino]pyrazine-2-carboxamide], for which the IC50 at SRC is 10 to 100 nM; at LCK, 10 to 100 nM; against ITK, 10 to 100 nM; against EGFR it was 100 to 1000 nM; at JAK3, 100 to 1000 nM.

Regarding `C[C@@H]1[C@H](NC(=O)c2ccc(C3CC3)cc2)CCCN1c1nnc(C(N)=O)c(Nc2cnn(C)c2)n1` [Example D-277, 3-[(2R,3R)-3-(4-cyclopropylbenzamido)-2-methylpiperidin-1-yl]-5-[(1-methyl-1H-pyrazol-4-yl)amino]-1,2,4-triazine-6-carboxamide], the IC50 at SRC is 10 to 100 nM; on LCK, 10 to 100 nM; against ITK it was 100 to 1000 nM; against EGFR, 1000 to 10000 nM; at JAK3, 100 to 1000 nM.

For the compound `C[C@@H]1[C@H](NC(=O)c2ccc(C3CC3)cc2)CCCN1c1cnc(C(N)=O)c(Nc2cnn(C3CCC(F)(F)CC3)c2)n1` [Example D-307, 5-[(2R,3R)-3-(4-cyclopropylbenzamido)-2-methylpiperidin-1-yl]-3-{[1-(4,4-difluorocyclohexyl)-1H-pyrazol-4-yl]amino}pyrazine-2-carboxamide], the IC50 on SRC was 100 to 1000 nM; at LCK, 100 to 1000 nM; against ITK it was 1000 to 10000 nM; against EGFR, over 10000 nM; on JAK3, over 10000 nM.

With `C[C@@H]1[C@H](NC(=O)c2ccc(C3CC3)cc2)CCCN1c1cnc(C(N)=O)c(Nc2cnn(C3CCN(CC(F)(F)F)CC3)c2)n1` [Example D-293, 5-[(2R,3R)-3-(4-cyclopropylbenzamido)-2-methylpiperidin-1-yl]-3-({1-[1-(2,2,2-trifluoroethyl)piperidin-4-yl]-1H-pyrazol-4-yl}amino)pyrazine-2-carboxamide], the IC50 on SRC was 10 to 100 nM; on LCK, over 10000 nM; against ITK it was 1000 to 10000 nM; at EGFR, over 10000 nM; at JAK3 it was 1000 to 10000 nM.
